US5447716A, “Process for lightening the skin or treating pigmental blemishes using a composition containing benzomorpholine or 3,4-dihydro-2H-1,4-benzoxazine derivatives” (L'Oreal, priority 1993, dated 1995)

Key:
fungal tyrosinase = test: in vitro inhibition test of the activity of tyrosinase (dopachrome formation at 475 nm); format: biochemical; details: inhibitor at 50 mol % with respect to tyrosine; L-dopa co-substrate; pH 6.5, 25° C.; lowering in maximum dopachrome (OD 475 nm at plateau) vs no inhibitor
Description: Some of the compounds of general formula (I) have been studied in comparison with an equivalent molar amount of hydroquinone in the in vitro inhibition test of the activity of tyrosinase.
According to this test, the amount of dopachrome formed during the chain of reactions of conversion of tyrosine to melanins is monitored by visible spectrometry at 475 nm. These reactions are catalyzed in vitro by fungal tyrosinase, in the presence of a reducing co-substrate (for example, a small amount of L-dopa) in order to initiate the hydroxylation reaction of L-tyrosine to L-dopa, which is then catalytically oxidized to dopaquinone and then to dopachrome, an intermediate product before the non-enzymatic oxidation reactions which result in the formation of melanins.
The concentration of dopachrome formed with time in the presence and in the absence of the inhibitor is thus measured.
The inhibitor concentrations are set at 50 mol % with respect to the concentration of tyrosine in the reaction medium.
The inhibition effect is expressed by the lowering in the maximum amount of dopachrome formed (optical density value at 475 nm read at the plateau of the curve) with respect to the amount obtained in the absence of inhibitor.
A--0.1M Phosphate buffer, pH=6.5 (1% Tween 20)
B--2·10^-3 M Mother solution of L-tyrosine in A
C--10^-4 M Mother solution of L-dopa in A
D--Mother solution of fungal tyrosinase in A containing 2,400 units/ml
E--10^-2 M Mother solution of the inhibitor in A (Solutions C and D are to be prepared on the day)
reference cell: 3 ml of A
homogenize and equilibrate at 25° C.
mix rapidly and observe the kinetics by measuring the absorbance at 475 nm as a function of time.

[1] = in words, background; cited from earlier work
melanocytes = details: in words, background; cited from earlier work

| SMILES | % of inhibition (fungal tyrosinase) [%] | irritation [1] | cytotoxicity for melanocytes (melanocytes) |
| --- | --- | --- | --- |
| Oc1ccc2c(c1)NCCO2 | -80 | – | – |
| Oc1ccc(O)cc1 [hydroquinone] | -33 | particularly irritating | cytotoxic |
| Oc1ccc2c(c1)OCCN2 | -71 | – | – |
